From ChEMBL document CHEMBL1201862, “PubChem BioAssay data set” (2004)
Structures can show the parent of a compound that is named as a salt.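 Test compounds were applied to cells in 96-well plates for 48 hours at 5 doses. GI50 is the concentration that inhibits growth by half.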 Activity calls are given as the source filed them. No stated cut-off is given here; in the data, active = GI50 up to about 1.1 µM and inactive = higher.

What was measured:
Assay in all cases: inhibition of tumour cell growth, NCI panel, 48 h
M19-MEL = system: M19-MEL
XF498 = system: XF498
DMS-114 = system: DMS-114
DLD-1 = system: DLD-1
HOP-18 = system: HOP-18
LXFL 529 = system: LXFL 529
KM-20L2 = system: KM-20L2
DMS-273 = system: DMS-273
RXF 631 = system: RXF 631

| SMILES | GI50 (M19-MEL) | GI50 (XF498) | GI50 (DMS-114) | GI50 (DLD-1) | GI50 (HOP-18) | GI50 (LXFL 529) | GI50 (KM-20L2) | GI50 (DMS-273) | GI50 (RXF 631) |
| --- | --- | --- | --- | --- | --- | --- | --- | --- | --- |
| CCOC(=O)c1cc(C(=O)O)c(=O)n2c1[nH]c1ccccc12 | > 100 µM (inactive) | > 100 µM (inactive) | > 100 µM (inactive) | 99.8 µM (inactive) | 42.1 µM (inactive) | 75.7 µM (inactive) | > 100 µM (inactive) | 56.1 µM (inactive) | > 100 µM (inactive) |
| Cc1ccc(/C=C/C(=O)C(C)C)cc1 | 64 µM (inactive) |  | 42.2 µM (inactive) | 51.9 µM (inactive) |  | 33.8 µM (inactive) | 14.2 µM (inactive) |  |  |
| COC(=O)c1cccc2c3ccccc3c3ccccc3c12 | 51.2 µM (inactive) |  | 29.4 µM (inactive) | 65.9 µM (inactive) | 26.9 µM (inactive) | 28 µM (inactive) | 41.8 µM (inactive) | 33.3 µM (inactive) |  |
| NCc1ccccc1-c1c2nc(c(-c3ccccc3CN)c3ccc([nH]3)c(-c3ccccc3CN)c3nc(c(-c4ccccc4CN)c4ccc1[nH]4)C=C3)C=C2 | 22.2 µM (inactive) |  |  |  | 1.18 µM (inactive) | 22.1 µM (inactive) | 19.7 µM (inactive) | 7.36 µM (inactive) |  |
| COC1CCC2C(=O)CCCC2O1 (stereo not given) | > 100 µM (inactive) | > 100 µM (inactive) | > 100 µM (inactive) | > 100 µM (inactive) | > 100 µM (inactive) | > 100 µM (inactive) | > 100 µM (inactive) | > 100 µM (inactive) | > 100 µM (inactive) |
| CCCCCCCCCCCCCCCCCCN(C)CC(COP(=O)([O-])OCC[N+](C)(C)C)OC (stereo not given) | 4.21 µM (inactive) | 14 µM (inactive) | 6.76 µM (inactive) | 5.14 µM (inactive) | 17.3 µM (inactive) | 8.67 µM (inactive) | 1.91 µM (inactive) | 1.95 µM (inactive) | 16.2 µM (inactive) |
| CCc1cccc(C)c1NC(=O)C(=O)CC(=O)c1ccc(Cl)s1 | > 100 µM (inactive) |  |  | > 100 µM (inactive) | > 100 µM (inactive) | > 100 µM (inactive) | > 100 µM (inactive) |  | > 100 µM (inactive) |
| O=C1CC2CC3OC3[C@H]3c4cc5c(cc4C(=O)N1C23)OCO5 (stereo not given in full) | > 100 µM (inactive) | > 100 µM (inactive) | > 100 µM (inactive) |  |  | > 100 µM (inactive) | > 100 µM (inactive) | > 100 µM (inactive) |  |
| Nc1nnc(O)c2c1c(I)cn2C1OC(CO)C(O)C1O (stereo not given) |  | 2.96 µM (inactive) | 1.43 µM (inactive) | 0.082 µM (active) | 3.05 µM (inactive) | 0.646 µM (active) | 2.49 µM (inactive) | 0.125 µM (active) | 0.295 µM (active) |
| CCCCc1oc2ccccc2c1C(=O)c1cc(I)c(OCCN(CC)CC)c(I)c1 [AMIODARONE HYDROCHLORIDE] | 4.67 µM (inactive) | 4.69 µM (inactive) |  | 6.73 µM (inactive) | 0.791 µM (active) |  | 3.64 µM (inactive) | 4.16 µM (inactive) |  |
